Patent US6914045B2, “Glycopeptide antibiotics” (Wyeth Holdings Corporation, priority 2001, dated 2005)
≈ marks a conversion by molar mass, not a printed value.

What was measured:
Enterococcus sp. = test: in vitro antibacterial evaluation, MIC by broth dilution; type: cell-based; conditions: broth dilution, 18 hours at 35° C.
Summary of the method: (§1)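 Inoculum 5×10^5 CFU/mL; concentrations 64 to 0.06 μg/mL; MIC defined as lowest inhibitory level. Conducted by broth dilution under NCCLS guidelines.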

Escherichia coli = test: as above; type: cell-based; conditions: 18 hours at 35° C.
Summary of the method: as §1

Staphylococcus sp. = test: as above; type: cell-based; conditions: broth dilution, 18 hours at 35° C.
Summary of the method: as §1

Streptococcus sp. = test: as above; type: cell-based; conditions: broth dilution, 18 hours at 35° C.
Summary of the method: as §1

[1] = test system: Enterococcus faecalis (GC 6189); test: acute lethal infection in mice; type: in vivo; conditions: female CD-1 mice, intraperitoneal challenge, intravenous 30 min. after infection, 7 day survival
Summary of the method: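 ED50 from 7 day survival ratios pooled over 3 separate tests. Female CD-1 mice, 20+/−2 gm, ip bacterial challenge (trypticase soy broth or hog gastric mucin) lethal to untreated controls in 24-48 hr; iv dosing 30 min after infection in saline or 5% dextrose, n=5/dose.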

CCC(CC)C1OCC2OC(OC3C(CO)OC(Oc4ccc(CC5NC(=O)C(C(C)c6ccccc6)NC(=O)CNC(=O)C(CO)NC(=O)C(C(O)C6CNC(=N)N6C6OC(CO)C(O)C(O)C6O)NC(=O)C(C(O)C6CNC(=N)N6)NC5=O)cc4)C(O)C3O)C(O)C(O)C2O1 (stereo not drawn) [Example 116, Cyclo[glycyl-β-methylphenylalanyl-O-[4-O-[4,6-O-(2-ethylbutylidene)hexopyranosyl]-hexopyranosyl]tyrosyl-3-(2-iminoimidazolidin-4-yl)seryl-3-(3-hexopyranosvl-2-iminoimidazolidin-4-yl)serylseryl]]
MIC Enterococcus avium (GC 4558) (Enterococcus sp.; Enterococcus avium (GC 4558)): 2 µg/mL (≈ 1.45 µM)
MIC Enterococcus faecalis (ATCC 29212) (Enterococcus sp.; Enterococcus faecalis (ATCC 29212)): 2 µg/mL (≈ 1.45 µM)
MIC Enterococcus faecalis (GC 2242) (Enterococcus sp.; Enterococcus faecalis (GC 2242)): 2 µg/mL (≈ 1.45 µM)
MIC Enterococcus faecalis (GC 2691) (Enterococcus sp.; Enterococcus faecalis (GC 2691)): 2 µg/mL (≈ 1.45 µM)
MIC Enterococcus faecalis (GC 3059) (Enterococcus sp.; Enterococcus faecalis (GC 3059)): 2 µg/mL (≈ 1.45 µM)
MIC Enterococcus faecalis (GC 4552) (Enterococcus sp.; Enterococcus faecalis (GC 4552)): 2 µg/mL (≈ 1.45 µM)
MIC Enterococcus faecalis (GC 4553) (Enterococcus sp.; Enterococcus faecalis (GC 4553)): 2 µg/mL (≈ 1.45 µM)
MIC Enterococcus faecalis (GC 4554) (Enterococcus sp.; Enterococcus faecalis (GC 4554)): 2 µg/mL (≈ 1.45 µM)
MIC Enterococcus faecalis (GC 6189) (Enterococcus sp.; Enterococcus faecalis (GC 6189)): 2 µg/mL (≈ 1.45 µM)
MIC Enterococcus faecium (GC 2243) (Enterococcus sp.; Enterococcus faecium (GC 2243)): 2 µg/mL (≈ 1.45 µM)
MIC Enterococcus faecium (GC 4556) (Enterococcus sp.; Enterococcus faecium (GC 4556)): 2 µg/mL (≈ 1.45 µM)
MIC Enterococcus faecium (GC 4557) (Enterococcus sp.; Enterococcus faecium (GC 4557)): 2 µg/mL (≈ 1.45 µM)
MIC Enterococcus faecalis (ATCC 29212) (Enterococcus sp.; strain ATCC 29212): 2 µg/mL (≈ 1.45 µM)
MIC Enterococcus faecalis (GC 2242) (Enterococcus sp.; strain GC 2242): 2 µg/mL (≈ 1.45 µM)
MIC Enterococcus faecium (GC 2243) (Enterococcus sp.; strain GC 2243): 2 µg/mL (≈ 1.45 µM)
MIC Enterococcus faecalis (GC 2691) (Enterococcus sp.; strain GC 2691): 2 µg/mL (≈ 1.45 µM)
MIC Enterococcus faecalis (GC 3059) (Enterococcus sp.; strain GC 3059): 2 µg/mL (≈ 1.45 µM)
MIC Enterococcus faecalis (GC 4552) (Enterococcus sp.; strain GC 4552): 2 µg/mL (≈ 1.45 µM)
MIC Enterococcus faecalis (GC 4553) (Enterococcus sp.; strain GC 4553): 2 µg/mL (≈ 1.45 µM)
MIC Enterococcus faecalis (GC 4554) (Enterococcus sp.; strain GC 4554): 2 µg/mL (≈ 1.45 µM)
MIC Enterococcus faecium (GC 4556) (Enterococcus sp.; strain GC 4556): 2 µg/mL (≈ 1.45 µM)
MIC Enterococcus faecium (GC 4557) (Enterococcus sp.; strain GC 4557): 2 µg/mL (≈ 1.45 µM)
MIC Enterococcus avium (GC 4558) (Enterococcus sp.; strain GC 4558): 2 µg/mL (≈ 1.45 µM)
MIC Enterococcus faecalis (GC 6189) (Enterococcus sp.; strain GC 6189): 2 µg/mL (≈ 1.45 µM)
MIC Escherichia coli (ATCC 25922) (Escherichia coli; strain ATCC 25922): 32 µg/mL (≈ 23.2 µM)
MIC Escherichia coli (GC 4559) (Escherichia coli; strain GC 4559): 64 µg/mL (≈ 46.5 µM)
MIC Escherichia coli (GC 4560) (Escherichia coli; strain GC 4560): 1 µg/mL (≈ 0.726 µM)
MIC Coagulase Negative Staphylococcus (GC 4547) (Staphylococcus sp.): 1 µg/mL (≈ 0.726 µM)
MIC Coagulase Negative Staphylococcus (GC 4548) (Staphylococcus sp.): 1 µg/mL (≈ 0.726 µM)
MIC Coagulase Negative Staphylococcus (GC 4549) (Staphylococcus sp.): 1 µg/mL (≈ 0.726 µM)
MIC Coagulase Negative Staphylococcus (GC 4551) (Staphylococcus sp.): 1 µg/mL (≈ 0.726 µM)
MIC Coagulase Negative Staphylococcus (GC 6257) (Staphylococcus sp.): 0.5 µg/mL (≈ 0.363 µM)
MIC Staphylococcus aureus (ATCC 29213) (Staphylococcus sp.): 1 µg/mL (≈ 0.726 µM)
MIC Staphylococcus aureus (GC 1131) (Staphylococcus sp.): 1 µg/mL (≈ 0.726 µM)
MIC Staphylococcus aureus (GC 3051) (Staphylococcus sp.): 1 µg/mL (≈ 0.726 µM)
MIC Staphylococcus aureus (GC 3053) (Staphylococcus sp.): 1 µg/mL (≈ 0.726 µM)
MIC Staphylococcus aureus (GC 4541) (Staphylococcus sp.): 1 µg/mL (≈ 0.726 µM)
MIC Staphylococcus aureus (GC 4542) (Staphylococcus sp.): 0.5 µg/mL (≈ 0.363 µM)
MIC Staphylococcus aureus (GC 4544) (Staphylococcus sp.): 1 µg/mL (≈ 0.726 µM)
MIC Staphylococcus aureus (GC 4545) (Staphylococcus sp.): 1 µg/mL (≈ 0.726 µM)
MIC Staphylococcus aureus-SMITH (GC 4543) (Staphylococcus sp.): 1 µg/mL (≈ 0.726 µM)
MIC Staphylococcus haemolyticus (GC 4546) (Staphylococcus sp.): 0.5 µg/mL (≈ 0.363 µM)
MIC Staphylococcus aureus (GC 1131) (Staphylococcus sp.; inoculum 5×10^5 CFU/mL, strain GC 1131): 1 µg/mL (≈ 0.726 µM)
MIC Staphylococcus aureus (ATCC 29213) (Staphylococcus sp.; strain ATCC 29213): 1 µg/mL (≈ 0.726 µM)
MIC Staphylococcus aureus (GC 3051) (Staphylococcus sp.; strain GC 3051): 1 µg/mL (≈ 0.726 µM)
MIC Staphylococcus aureus (GC 3053) (Staphylococcus sp.; strain GC 3053): 1 µg/mL (≈ 0.726 µM)
MIC Staphylococcus aureus (GC 4541) (Staphylococcus sp.; strain GC 4541): 1 µg/mL (≈ 0.726 µM)
MIC Staphylococcus aureus (GC 4542) (Staphylococcus sp.; strain GC 4542): 0.5 µg/mL (≈ 0.363 µM)
MIC Staphylococcus aureus (GC 4544) (Staphylococcus sp.; strain GC 4544): 1 µg/mL (≈ 0.726 µM)
MIC Staphylococcus aureus (GC 4545) (Staphylococcus sp.; strain GC 4545): 1 µg/mL (≈ 0.726 µM)
MIC Staphylococcus haemolyticus (GC 4546) (Staphylococcus sp.; strain GC 4546): 0.5 µg/mL (≈ 0.363 µM)
MIC Coagulase Negative Staphylococcus (GC 4547) (Staphylococcus sp.; strain GC 4547): 1 µg/mL (≈ 0.726 µM)
MIC Coagulase Negative Staphylococcus (GC 4548) (Staphylococcus sp.; strain GC 4548): 1 µg/mL (≈ 0.726 µM)
MIC Coagulase Negative Staphylococcus (GC 4549) (Staphylococcus sp.; strain GC 4549): 1 µg/mL (≈ 0.726 µM)
MIC Coagulase Negative Staphylococcus (GC 4551) (Staphylococcus sp.; strain GC 4551): 1 µg/mL (≈ 0.726 µM)
MIC Coagulase Negative Staphylococcus (GC 6257) (Staphylococcus sp.; strain GC 6257): 0.5 µg/mL (≈ 0.363 µM)
MIC Staphylococcus aureus-SMITH (GC 4543) (Staphylococcus sp.; strain SMITH GC 4543): 1 µg/mL (≈ 0.726 µM)
MIC Streptococcus agalactiae (GC 4564) (Streptococcus sp.; Streptococcus agalactiae (GC 4564)): 0.25 µg/mL (≈ 0.181 µM)
MIC Streptococcus pneumoniae (ATCC 6301) (Streptococcus sp.; Streptococcus pneumoniae (ATCC 6301)): <0.06 µg/mL
MIC Streptococcus pneumoniae (GC 1894) (Streptococcus sp.; Streptococcus pneumoniae (GC 1894)): <0.06 µg/mL
MIC Streptococcus pneumoniae (GC 4565) (Streptococcus sp.; Streptococcus pneumoniae (GC 4565)): <0.06 µg/mL
MIC Streptococcus pyogenes (GC 4563) (Streptococcus sp.; Streptococcus pyogenes (GC 4563)): 0.25 µg/mL (≈ 0.181 µM)
MIC Streptococcus pneumoniae (ATCC 6301) (Streptococcus sp.; strain ATCC 6301): <0.06 µg/mL
MIC Streptococcus pneumoniae (GC 1894) (Streptococcus sp.; strain GC 1894): <0.06 µg/mL
MIC Streptococcus pyogenes (GC 4563) (Streptococcus sp.; strain GC 4563): 0.25 µg/mL (≈ 0.181 µM)
MIC Streptococcus agalactiae (GC 4564) (Streptococcus sp.; strain GC 4564): 0.25 µg/mL (≈ 0.181 µM)
MIC Streptococcus pneumoniae (GC 4565) (Streptococcus sp.; strain GC 4565): <0.06 µg/mL
median effective dose (ED50), Enterococcus faecalis (GC 6189) [1]: 0.46 mg/kg
